According to the supplement of paper PMC10307832:

Experiments:
Assay in all cases: relative viability (nuclei count vs DMSO), 5 days (fraction); higher = more cells survive
[1] = compound: C1=CC=C2C(=C1)C=CC(=C2SSC3=C(C=CC4=CC=CC=C43)O)O [IPA-3] + O=C(CCCCCCC(=O)Nc1ccccc1)NO [Vorinostat] (partner 1 µM)
Procedure, shortened: (§1)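 Lung cancer cell lines in 1536-well plates got either a single drug or a fixed anchor-drug dose together with five library-drug doses (not always all listed) in √10 steps, by pin tool, on the day after seeding. Nuclei were counted after 5 days, and relative viability is the treated-to-vehicle ratio of nuclei counts. Values are medians of duplicate plates.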

[2] = compound: C1=CC=C2C(=C1)C=CC(=C2SSC3=C(C=CC4=CC=CC=C43)O)O [IPA-3] + C[C@@H](Oc1cc(-c2cnn(C3CCNCC3)c2)cnc1N)c1c(Cl)ccc(F)c1Cl [Crizotinib] (partner 1 µM)
Procedure, shortened: as §1

[3] = compound: Cn1c(Nc2ccc(C(F)(F)F)cc2)nc2cc(Oc3ccnc(-c4ncc(C(F)(F)F)[nH]4)c3)ccc21 [RAF265] + O=C(c1cc(Cc2n[nH]c(=O)c3ccccc23)ccc1F)N1CCN(C(=O)C2CC2)CC1 [Olaparib] (partner 8 µM)
Procedure, shortened: as §1

[4] = compound: Cn1c(Nc2ccc(C(F)(F)F)cc2)nc2cc(Oc3ccnc(-c4ncc(C(F)(F)F)[nH]4)c3)ccc21 [RAF265] + CC1(C)CCC(c2ccc(Cl)cc2)=C(CN2CCN(c3ccc(C(=O)NS(=O)(=O)c4ccc(N[C@H](CCN5CCOCC5)CSc5ccccc5)c(S(=O)(=O)C(F)(F)F)c4)cc3)CC2)C1 [Navitoclax] (partner 0.5 µM)
Procedure, shortened: as §1

Cell Line	relative viability ([1]; first compound 0.2 µM)	relative viability ([1]; first compound 0.6325 µM)	relative viability ([1]; first compound 2 µM)	relative viability ([1]; first compound 6.325 µM)	relative viability ([1]; first compound 20 µM)	relative viability ([2]; first compound 0.2 µM)	relative viability ([2]; first compound 0.6325 µM)	relative viability ([2]; first compound 2 µM)	relative viability ([2]; first compound 6.325 µM)	relative viability ([2]; first compound 20 µM)	relative viability ([3]; first compound 0.01 µM)	relative viability ([3]; first compound 0.03162 µM)	relative viability ([3]; first compound 0.1 µM)	relative viability ([3]; first compound 0.3162 µM)	relative viability ([3]; first compound 1 µM)	relative viability ([4]; first compound 0.01 µM)	relative viability ([4]; first compound 0.03162 µM)	relative viability ([4]; first compound 0.1 µM)	relative viability ([4]; first compound 0.3162 µM)	relative viability ([4]; first compound 1 µM)
LC-2-ad	0.72	0.681	0.788	0.726	0.76	0.499	0.523	0.419	0.477	0.488	0.696	0.769	0.921	0.904	0.636	0.527	0.283	0.311	0.162	0.115
NCI-H1666	1.07	1.06	1.07	1.04	1.03	1.1	1.04	1.07	1.15	0.799	0.806	0.746	0.707	0.786	0.703	1.01	1	0.882	0.931	0.454
201T	1.04	0.931	1.01	0.926	1.13	1.04	1.01	1.05	1.03	1.04	0.839	0.804	0.887	0.824	0.828	1.23	1.2	1.23	1.27	1.28
NCI-H2009	0.858	0.685	0.89	0.723	0.642	1.12	1	1.04	0.915	0.924	0.785	0.594	0.603	0.671	0.579	1.19	1.15	1.16	1.13	0.858
NCI-H2228	0.953	0.809	0.633	0.552	0.737	0.437	0.383	0.439	0.376	0.597	0.915	0.691	0.726	0.291	0.246	0.741	0.971	0.903	0.945	0.726
LU99A	0.642	0.4	0.459	0.461	0.379	0.635	0.529	0.615	0.517	0.533	0.268	0.283	0.226	0.185	0.152	0.703	0.688	0.613	0.514	0.325
NCI-H1437	0.863	0.644	0.691	0.783	0.826	1.19	0.896	1.04	0.895	1.34	0.644	0.611	0.653	0.619	0.561	1.1	1.06	1.01	1.18	1.1
EKVX	0.801	0.693	0.83	0.793	0.763	1.24	0.965	0.951	0.799	1.22	0.806	0.866	0.966	0.646	0.653	0.939	0.916	0.957	0.606	0.637
